Laboratory results from patent publication US8975398B2, “NAMPT inhibitors” (AbbVie Inc., priority 2012, dated 2015).

Key:
[1] = target: NAMPT (human, recombinant, C-terminally His-tagged) (Homo sapiens, UniProt P43490); assay: Time-Resolved Fluorescence Resonance Energy Transfer (TR-FRET) Binding Assay of NAMPT; settings: 6.8 nM NAMPT, 200 nM probe, equilibrated 3 hours, absence of substrates
Description: Determination of the utility of compounds having Formula (I) as binders to and inhibitors of NAMPT was performed using Time-Resolved Fluorescence Resonance Energy Transfer (TR-FRET) binding assays.
Time-Resolved Fluorescence Resonance Energy Transfer (TR-FRET) Binding Assay of NAMPT
Test compounds were serially diluted (typically 11 half log dilutions) in neat DMSO to 50× final concentrations prior to dilution with assay buffer (50 mM HEPES (NaOH), pH 7.5, 100 mM NaCl, 10 mM MgCl2, 1 mM DTT, 1% Glycerol) to 3× and 6% DMSO. Six μL were transferred to 384-well low-volume plates (Owens Corning #3673). To this, 12 μL of a 1.5× solution containing enzyme, probe and antibody were added. Final concentrations in the 18 μL, reactions were 1× assay buffer, 2% DMSO, 6.8 nM NAMPT (human, recombinant, C-terminally His-tagged), 200 nM probe (a potent nicotinamide-competitive inhibitor conjugated to Oregon Green 488) and 1 nM Tb-anti-His antibody (Invitrogen #PV5895). Reactions were equilibrated at room temperature for 3 hours prior to reading on an Envision multi-label plate reader (Perkin Elmer; Ex=337 nm, Em=520 and 495 nm). Time-resolved FRET ratios (Em520/Em495) were normalized to controls, plotted as a function of compound concentration and fit with the four-parameter logistic equation to determine IC50s.

[2] = target: NAMPT (Homo sapiens, UniProt P43490); assay: Time-Resolved Fluorescence Resonance Energy Transfer (TR-FRET) Binding Assay of NAMPT with PRPP; settings: 2 nM NAMPT, 2 nM probe, 200 uM PRPP and 2.5 mM ATP, equilibrated 16 hours
Description: Time-Resolved Fluorescence Resonance Energy Transfer (TR-FRET) Binding Assay of NAMPT with PRPP
Compound handling and data processing were identical to the assay in the absence of substrates (above). Final concentrations were 1× assay buffer, 2% DMSO, 2 nM NAMPT, 2 nM probe, 1 nM Tb-anti-His antibody (Invitrogen #PV5895), 200 uM PRPP and 2.5 mM ATP. Reactions were equilibrated for 16 hours prior to measurement to allow for potential enzymatic modification of test compounds.

Sequence of NAMPT (P43490 whole entry): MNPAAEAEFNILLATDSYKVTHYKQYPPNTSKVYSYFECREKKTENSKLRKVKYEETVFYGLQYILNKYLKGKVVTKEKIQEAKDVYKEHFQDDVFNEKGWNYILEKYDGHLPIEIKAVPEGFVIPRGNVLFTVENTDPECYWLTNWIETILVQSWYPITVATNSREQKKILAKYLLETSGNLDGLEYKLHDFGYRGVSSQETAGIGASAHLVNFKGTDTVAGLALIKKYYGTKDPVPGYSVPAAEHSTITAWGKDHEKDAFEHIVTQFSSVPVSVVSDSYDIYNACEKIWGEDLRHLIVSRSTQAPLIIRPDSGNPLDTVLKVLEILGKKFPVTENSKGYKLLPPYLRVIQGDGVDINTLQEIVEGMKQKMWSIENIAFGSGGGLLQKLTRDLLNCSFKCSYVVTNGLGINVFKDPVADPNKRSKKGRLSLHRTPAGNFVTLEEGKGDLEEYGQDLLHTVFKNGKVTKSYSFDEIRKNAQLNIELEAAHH
Sequence of NAMPT (human, recombinant, C-terminally His-tagged) (P43490 whole entry): as above

IC50 [1] [nM] | IC50 [2] [nM] | SMILES
120 | 0.386 | O=C(Nc1ccc(OC2CCN(C(=O)CC3CCOCC3)CC2)cc1)C1CN(c2cccnc2)C1 [Example 1, 1-(pyridin-3-yl)-N-(4-{[1-(tetrahydro-2H-pyran-4-ylacetyl)piperidin-4-yl]oxy}phenyl)azetidine-3-carboxamide]
22.3 | 20 | CC(C)(O)C(=O)N1CCC(c2ccc(NC(=O)C3CN(c4cccnc4C#N)C3)cc2)CC1 [Example 2, 1-(2-cyanopyridin-3-yl)-N-{4-[1-(2-hydroxy-2-methylpropanoyl)piperidin-4-yl]phenyl}azetidine-3-carboxamide]
357 | 19.2 | O=C(Nc1ccc(OC2CCN(C(=O)CC3CCOCC3)CC2)cc1)C1CN(c2cccnc2C(F)(F)F)C1 [Example 3, N-(4-{[1-(tetrahydro-2H-pyran-4-ylacetyl)piperidin-4-yl]oxy}phenyl)-1-[2-(trifluoromethyl)pyridin-3-yl]azetidine-3-carboxamide]
424 | 24 | Cc1ncccc1N1CC(C(=O)Nc2ccc(OC3CCN(C(=O)CC4CCOCC4)CC3)cc2)C1 [Example 4, 1-(2-methylpyridin-3-yl)-N-(4-{[1-(tetrahydro-2H-pyran-4-ylacetyl)piperidin-4-yl]oxy}phenyl)azetidine-3-carboxamide]
107 | 10.2 | Cc1ccncc1N1CC(C(=O)Nc2ccc(OC3CCN(C(=O)CC4CCOCC4)CC3)cc2)C1 [Example 5, 1-(4-methylpyridin-3-yl)-N-(4-{[1-(tetrahydro-2H-pyran-4-ylacetyl)piperidin-4-yl]oxy}phenyl)azetidine-3-carboxamide]
544 | 2.34 | O=C(Nc1ccc(OC2CCN(C(=O)CC3CCOCC3)CC2)cc1)C1CN(c2cnccc2F)C1 [Example 6, 1-(4-fluoropyridin-3-yl)-N-(4-{[1-(tetrahydro-2H-pyran-4-ylacetyl)piperidin-4-yl]oxy}phenyl)azetidine-3-carboxamide]
104 | 84.7 | O=C(Nc1ccc(OC2CCN(C(=O)CC3CCOCC3)CC2)cc1)C1CN(c2cnccc2C(F)(F)F)C1 [Example 7, N-(4-{[1-(tetrahydro-2H-pyran-4-ylacetyl)piperidin-4-yl]oxy}phenyl)-1-[4-(trifluoromethyl)pyridin-3-yl]azetidine-3-carboxamide]
3360 | 5.3 | CC(C)(C)OC(=O)N1CCC(Oc2ccc(NC(=O)[C@H]3CCN(c4cccnc4)C3)cc2)CC1 [Example 8, tert-butyl 4-[4-({[(3S)-1-(pyridin-3-yl)pyrrolidin-3-yl]carbonyl}amino)phenoxy]piperidine-1-carboxylate]
8620 | 17.2 | CC(C)(C)OC(=O)N1CCC(Oc2ccc(NC(=O)[C@@H]3CCN(c4cccnc4)C3)cc2)CC1 [Example 9, tert-butyl 4-[4-({[(3R)-1-(pyridin-3-yl)pyrrolidin-3-yl]carbonyl}amino)phenoxy]piperidine-1-carboxylate]
34.5 | 0.518 | O=C(Nc1ccc(C2CCN(C(=O)[C@@H]3CCCO3)CC2)cc1)C1CN(c2cccnc2)C1 [Example 10, 1-(pyridin-3-yl)-N-(4-{1-[(2S)-tetrahydrofuran-2-ylcarbonyl]piperidin-4-yl}phenyl)azetidine-3-carboxamide]
2370 | 1.93 | O=C(Nc1ccc(OC2CCN(C(=O)CC3CCOCC3)CC2)cc1)[C@H]1CCN(c2cccnc2)C1 [Example 11, (3S)-1-(pyridin-3-yl)-N-(4-{[1-(tetrahydro-2H-pyran-4-ylacetyl)piperidin-4-yl]oxy}phenyl)pyrrolidine-3-carboxamide]
1410 | 2.05 | CC(C)C(=O)N1CCC(Oc2ccc(NC(=O)[C@H]3CCN(c4cccnc4)C3)cc2)CC1 [Example 12, (3S)-N-(4-{[1-(2-methylpropanoyl)piperidin-4-yl]oxy}phenyl)-1-(pyridin-3-yl)pyrrolidine-3-carboxamide]
858 | 2.88 | O=C(Nc1ccc(OC2CCN(C(=O)[C@@H]3CCCO3)CC2)cc1)[C@H]1CCN(c2cccnc2)C1 [Example 13, (3S)-1-(pyridin-3-yl)-N-[4-({1-[(2S)-tetrahydrofuran-2-ylcarbonyl]piperidin-4-yl}oxy)phenyl]pyrrolidine-3-carboxamide]
3840 | 3.08 | O=C(Nc1ccc(OC2CCN(C(=O)[C@H]3CCCO3)CC2)cc1)[C@H]1CCN(c2cccnc2)C1 [Example 14, (3S)-1-(pyridin-3-yl)-N-[4-({1-[(2R)-tetrahydrofuran-2-ylcarbonyl]piperidin-4-yl}oxy)phenyl]pyrrolidine-3-carboxamide]
1660 | 2.49 | O=C(Nc1ccc(OC2CCN(C(=O)C3CCOC3)CC2)cc1)[C@H]1CCN(c2cccnc2)C1 (stereo partly drawn) [Example 15, (3S)-1-(pyridin-3-yl)-N-(4-{[1-(tetrahydrofuran-3-ylcarbonyl)piperidin-4-yl]oxy}phenyl)pyrrolidine-3-carboxamide]
2480 | 4.13 | O=C(Nc1ccc(OC2CCN(C(=O)CC3CC3)CC2)cc1)[C@H]1CCN(c2cccnc2)C1 [Example 16, (3S)-N-(4-{[1-(cyclopropylacetyl)piperidin-4-yl]oxy}phenyl)-1-(pyridin-3-yl)pyrrolidine-3-carboxamide]
3510 | 2.36 | CC(C)(O)C(=O)N1CCC(Oc2ccc(NC(=O)[C@H]3CCN(c4cccnc4)C3)cc2)CC1 [Example 17, (3S)-N-(4-{[1-(2-hydroxy-2-methylpropanoyl)piperidin-4-yl]oxy}phenyl)-1-(pyridin-3-yl)pyrrolidine-3-carboxamide]
2740 | 5.32 | O=C(Nc1ccc(OC2CCN(C(=O)CC(F)(F)F)CC2)cc1)[C@H]1CCN(c2cccnc2)C1 [Example 18, (3S)-1-(pyridin-3-yl)-N-(4-{[1-(3,3,3-trifluoropropanoyl)piperidin-4-yl]oxy}phenyl)pyrrolidine-3-carboxamide]
1170 | 0.554 | CC[C@H](C)C(=O)N1CCC(Oc2ccc(NC(=O)[C@H]3CCN(c4cccnc4)C3)cc2)CC1 [Example 19, (3S)-N-[4-({1-[(2S)-2-methylbutanoyl]piperidin-4-yl}oxy)phenyl]-1-(pyridin-3-yl)pyrrolidine-3-carboxamide]
6.74 | 0.296 | CC(C)(O)C(=O)N1CCC(c2ccc(NC(=O)C3CN(c4cccnc4)C3)cc2)CC1 [Example 20, N-{4-[1-(2-hydroxy-2-methylpropanoyl)piperidin-4-yl]phenyl}-1-(pyridin-3-yl)azetidine-3-carboxamide]
– | 11.2 | CC(C)(C)OC(=O)N1CCC(Oc2ccc(C(=O)N[C@H]3CCN(c4cccnc4)C3)cc2)CC1 [Example 27, tert-butyl 4-(4-{[(3S)-1-(pyridin-3-yl)pyrrolidin-3-yl]carbamoyl}phenoxy)piperidine-1-carboxylate]
– | 2.51 | CC(C)(C)OC(=O)N1CCC(Oc2ccc(C(=O)N[C@@H]3CCN(c4cccnc4)C3)cc2)CC1 [Example 28, tert-butyl 4-(4-{[(3R)-1-(pyridin-3-yl)pyrrolidin-3-yl]carbamoyl}phenoxy)piperidine-1-carboxylate]
